The values that follow come from patent US9597292B2, “Oral dosage forms of methyl hydrogen fumarate and prodrugs thereof” (XenoPort, Inc., priority 2012, dated 2017).

Common to all, as to format: in vivo, human
Data set [1] in a line: Single-dose food effect pharmacokinetic study in healthy adult subjects (Example 8). The note with it: promoiety after oral dosing of Example 2 formulation. The source says:
(§1) Twenty-four healthy adult volunteers (males and females) participated in the study. Twelve of the subjects received a dosage form of Example 1, once in a fed condition and once in a fasted condition, with a two-week washout between treatments. Twelve other subjects received a dosage form of Example 2, once in a fed condition and once in a fasted condition, with a two-week washout between treatments. The fasted dosing was achieved by dosing the subject following an overnight fast while the fed dosing was achieved by dosing the subject after consuming a high fat-content breakfast.
(§2) Urine samples were collected from all subjects prior to dosing, and complete urine output was obtained at the 0-4, 4-8, 8-12, 12-24, 24-36, 36-48, 48-72, 72-96 and 96-120 hour intervals after dosing. Blood samples were quenched immediately with acetonitrile and frozen.

A short description of data set [2]: Single-dose food effect pharmacokinetic study of sustained release dosage form in healthy adult subjects (Example 15). The note with it: promoiety after oral dosing of the formulation.
From the text: (§3) Twelve healthy adult volunteers (males and females) participated in the study. All twelve subjects received a dosage form of Example 9, once in a fed condition and once in a fasted condition, with a two-week washout between treatments. The fasted dosing was achieved by dosing the subject following an overnight fast while the fed dosing was achieved by dosing the subject after consuming a high fat-content breakfast.
as §2

Data set [3] can be described thus: Safety and tolerability, adverse events in single-dose food effect study (Example 15). The note with it: for Feeling Hot (subjects reporting) / Flushing (subjects reporting): 12 subjects.
From the text: as §3

Data set [4] in a line: Safety and tolerability, adverse events in single-dose food effect study (Example 8). The note with it: for Feeling Hot (subjects reporting) / Flushing (subjects reporting): 12 subjects.
From the text: as §1

Setting [5] is: single 200 mg oral dose, fed and fasted.

As for `CCN(CC)C(=O)CO` [Promoiety], the “half life of clearance from blood” value in data set [1] and in data set [2] was “around 3 hours” each time.

For the compound `CCN(CC)C(=O)COC(=O)/C=C/C(=O)OC` [(N,N-Diethylcarbamoyl)methyl methyl (2E)but-2-ene-1,4-dioate], the “Feeling Hot (subjects reporting)” value in data set [3] (Fasted), in data set [3] (Fed), in data set [4] (Fasted) and in data set [4] (Fed) was “no subjects” throughout. In addition, the “Flushing (subjects reporting)” value in data set [3] (Fasted) is given as “No subjects”; in data set [3] (Fed), “Two”; in data set [4] (Fasted), “No subjects”; in data set [4] (Fed), “One”. Besides, the “tolerability during the trial” value in data set [3] (setting [5]) and in data set [4] (setting [5]) was “well tolerated” throughout.
